US9260439B2, “Dihydropyrrolopyrimidine derivatives” (PFIZER INC., priority 2014, dated 2016)

Target: truncated PI3Kα (p110α/iSH2 p85α) (Homo sapiens (Human), UniProt P42336)
Test: PI3KA_Act fluorescence polarization kinase assay (Ki)
Type: biochemical
Conditions: 1 mM ATP
Summary of the method: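 p110α/iSH2 p85α (0.5 nM) was reacted with 30 μM sonicated PIP2 in 50 mM HEPES pH 7.4, 150 mM NaCl, 5 mM MgCl2, 1 mM DTT and 0.05% CHAPS for 30 min at room temperature, then stopped with EDTA. PIP3 was detected by fluorescence polarization (GST-Grp1 PH domain/TAMRA-PIP3), and Ki came from a Morrison tight-binding fit.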

Chain of truncated PI3Kα (p110α/iSH2 p85α) (P42336 whole entry, the tested form may be a part): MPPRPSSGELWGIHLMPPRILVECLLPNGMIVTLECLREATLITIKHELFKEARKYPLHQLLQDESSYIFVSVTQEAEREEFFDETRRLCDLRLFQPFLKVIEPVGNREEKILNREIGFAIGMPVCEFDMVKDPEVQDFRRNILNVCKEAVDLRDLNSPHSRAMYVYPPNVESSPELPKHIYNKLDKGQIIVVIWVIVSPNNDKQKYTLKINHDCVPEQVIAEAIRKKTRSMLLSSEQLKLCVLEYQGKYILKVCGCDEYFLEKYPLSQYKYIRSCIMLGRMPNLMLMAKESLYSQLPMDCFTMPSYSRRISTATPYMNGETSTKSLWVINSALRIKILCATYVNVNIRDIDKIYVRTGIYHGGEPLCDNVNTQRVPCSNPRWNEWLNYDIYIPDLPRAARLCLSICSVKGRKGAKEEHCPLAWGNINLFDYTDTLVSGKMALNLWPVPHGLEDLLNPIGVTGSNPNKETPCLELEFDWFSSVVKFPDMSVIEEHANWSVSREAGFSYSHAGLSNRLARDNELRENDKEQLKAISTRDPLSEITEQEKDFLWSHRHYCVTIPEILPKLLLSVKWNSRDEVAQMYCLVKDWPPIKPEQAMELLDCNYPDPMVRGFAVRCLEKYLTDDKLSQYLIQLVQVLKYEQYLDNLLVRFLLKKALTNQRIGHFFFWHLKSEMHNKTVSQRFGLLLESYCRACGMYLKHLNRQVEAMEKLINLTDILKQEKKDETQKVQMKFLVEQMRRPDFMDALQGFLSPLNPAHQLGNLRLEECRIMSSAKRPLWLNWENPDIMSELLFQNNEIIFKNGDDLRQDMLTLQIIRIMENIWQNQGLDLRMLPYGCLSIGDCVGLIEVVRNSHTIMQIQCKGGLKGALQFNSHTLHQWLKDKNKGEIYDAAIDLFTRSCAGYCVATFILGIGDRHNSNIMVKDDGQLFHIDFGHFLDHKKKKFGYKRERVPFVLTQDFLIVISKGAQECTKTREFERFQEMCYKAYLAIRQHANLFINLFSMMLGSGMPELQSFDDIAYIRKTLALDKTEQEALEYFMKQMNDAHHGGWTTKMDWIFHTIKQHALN

Compound	PI3KA_Act Ki [nM]
C[C@]1(N2CCc3c(-c4cnc(N)nc4)nc(N4CCOCC4)nc32)CCN(C(=O)[C@H]2CCCO2)C1 [Example 372, {(3S)-3-[4-(2-aminopyrimidin-5-yl)-2-(morpholin-4-yl)-5,6-dihydro-7H-pyrrolo[2,3-d]pyrimidin-7-yl]-3-methylpyrrolidin-1-yl}[(2R)-tetrahydrofuran-2-yl]methanone]	0.040
C[C@]1(N2CCc3c(-c4cnc(N)nc4)nc(N4CCOCC4)nc32)CCN(C(=O)[C@H]2CCOC2)C1 [Example 373, {(3S)-3-[4-(2-aminopyrimidin-5-yl)-2-(morpholin-4-yl)-5,6-dihydro-7H-pyrrolo[2,3-d]pyrimidin-7-yl]-3-methylpyrrolidin-1-yl}[(3S)-tetrahydrofuran-3-yl]methanone]	0.028
C[C@]1(N2CCc3c(-c4cnc(N)nc4)nc(N4CCOCC4)nc32)CCN(C(=O)[C@@H]2CCOC2)C1 [Example 374, {(3S)-3-[4-(2-aminopyrimidin-5-yl)-2-(morpholin-4-yl)-5,6-dihydro-7H-pyrrolo[2,3-d]pyrimidin-7-yl]-3-methylpyrrolidin-1-yl}[(3R)-tetrahydrofuran-3-yl]methanone]	0.027
C[C@]1(N2CCc3c(-c4cnc(N)nc4)nc(N4CCOCC4)nc32)CCN(C(=O)[C@@H]2CCCN2)C1.Cl [Example 377, {(3S)-3-[4-(2-aminopyrimidin-5-yl)-2-(morpholin-4-yl)-5,6-dihydro-7H-pyrrolo[2,3-d]pyrimidin-7-yl]-3-methylpyrrolidin-1-yl}[(2S)-pyrrolidin-2-yl]methanone hydrochloride]	0.026
C[C@]1(N2CCc3c(-c4cnc(N)nc4)nc(N4CCOCC4)nc32)CCN(C(=O)[C@@H]2CCC(=O)N2)C1 [Example 378, (5S)-5-({(3S)-3-[4-(2-aminopyrimidin-5-yl)-2-(morpholin-4-yl)-5,6-dihydro-7H-pyrrolo[2,3-d]pyrimidin-7-yl]-3-methylpyrrolidin-1-yl}carbonyl)pyrrolidin-2-one]	0.082
C[C@]1(N2CCc3c(-c4cnc(N)nc4)nc(N4CCOCC4)nc32)CCN(C(=O)[C@H]2CCC(=O)N2)C1 [Example 379, (5R)-5-({(3S)-3-[4-(2-aminopyrimidin-5-yl)-2-(morpholin-4-yl)-5,6-dihydro-7H-pyrrolo[2,3-d]pyrimidin-7-yl]-3-methylpyrrolidin-1-yl}carbonyl)pyrrolidin-2-one]	0.061
C[C@]1(N2CCc3c(-c4cnc(N)nc4)nc(N4CCOCC4)nc32)CCN(C(=O)C2(N)CCOC2)C1.Cl (stereo partly drawn) [Example 380, {(3S)-3-[4-(2-aminopyrimidin-5-yl)-2-(morpholin-4-yl)-5,6-dihydro-7H-pyrrolo[2,3-d]pyrimidin-7-yl]-3-methylpyrrolidin-1-yl}(3-aminotetrahydrofuran-3-yl)methanone hydrochloride]	0.030
C[C@]1(N2CCc3c(-c4cnc(N)nc4)nc(N4CCOCC4)nc32)CCN(C(=O)[C@H]2CCCN2)C1.Cl [Example 382, {(3S)-3-[4-(2-aminopyrimidin-5-yl)-2-(morpholin-4-yl)-5,6-dihydro-7H-pyrrolo[2,3-d]pyrimidin-7-yl]-3-methylpyrrolidin-1-yl}[(2R)-pyrrolidin-2-yl]methanone hydrochloride]	<0.018
C[C@]1(N2CCc3c(-c4cnc(N)nc4)nc(N4CCOCC4)nc32)CCN(C(=O)[C@]2(F)CCNC2)C1.Cl [Example 383, {(3S)-3-[4-(2-aminopyrimidin-5-yl)-2-(morpholin-4-yl)-5,6-dihydro-7H-pyrrolo[2,3-d]pyrimidin-7-yl]-3-methylpyrrolidin-1-yl}[(3S)-3-fluoropyrrolidin-3-yl]methanone hydrochloride]	<0.018
C[C@]1(N2CCc3c(-c4cnc(N)nc4)nc(N4CCOCC4)nc32)CCN(C(=O)[C@@]2(F)CCNC2)C1.Cl [Example 384]	<0.018
Cn1nccc1C(=O)N1CC[C@](C)(N2CCc3c(-c4cnc(N)nc4)nc(N4CCOCC4)nc32)C1 [Example 385, {(3S)-3-[4-(2-aminopyrimidin-5-yl)-2-(morpholin-4-yl)-5,6-dihydro-7H-pyrrolo[2,3-d]pyrimidin-7-yl]-3-methylpyrrolidin-1-yl}(1-methyl-1H-pyrazol-5-yl)methanone]	<0.018
Cc1n[nH]cc1C(=O)N1CC[C@](C)(N2CCc3c(-c4cnc(N)nc4)nc(N4CCOCC4)nc32)C1 [Example 386, {(3S)-3-[4-(2-aminopyrimidin-5-yl)-2-(morpholin-4-yl)-5,6-dihydro-7H-pyrrolo[2,3-d]pyrimidin-7-yl]-3-methylpyrrolidin-1-yl}(3-methyl-1H-pyrazol-4-yl)methanone]	<0.018
C[C@]1(N2CCc3c(-c4cnc(N)nc4)nc(N4CCOCC4)nc32)CCN(C(=O)c2cn[nH]c2)C1 [Example 387, {(3S)-3-[4-(2-aminopyrimidin-5-yl)-2-(morpholin-4-yl)-5,6-dihydro-7H-pyrrolo[2,3-d]pyrimidin-7-yl]-3-methylpyrrolidin-1-yl}(1H-pyrazol-4-yl)methanone]	<0.018
C[C@]1(N2CCc3c(-c4cnc(N)nc4)nc(N4CCOCC4)nc32)CCN(C(=O)c2ncc[nH]2)C1 [Example 388, {(3S)-3-[4-(2-aminopyrimidin-5-yl)-2-(morpholin-4-yl)-5,6-dihydro-7H-pyrrolo[2,3-d]pyrimidin-7-yl]-3-methylpyrrolidin-1-yl}(1H-imidazol-2-yl)methanone]	<0.018
C[C@]1(N2CCc3c(-c4cnc(N)nc4)nc(N4CCOCC4)nc32)CCN(C(=O)c2cc[nH]n2)C1 [Example 389, {(3S)-3-[4-(2-aminopyrimidin-5-yl)-2-(morpholin-4-yl)-5,6-dihydro-7H-pyrrolo[2,3-d]pyrimidin-7-yl]-3-methylpyrrolidin-1-yl}(1H-pyrazol-3-yl)methanone]	<0.018
Cn1ccnc1C(=O)N1CC[C@](C)(N2CCc3c(-c4cnc(N)nc4)nc(N4CCOCC4)nc32)C1 [Example 390, {(3S)-3-[4-(2-aminopyrimidin-5-yl)-2-(morpholin-4-yl)-5,6-dihydro-7H-pyrrolo[2,3-d]pyrimidin-7-yl]-3-methylpyrrolidin-1-yl}(1-methyl-1H-imidazol-2-yl)methanone]	0.084
Cn1ccc(C(=O)N2CC[C@](C)(N3CCc4c(-c5cnc(N)nc5)nc(N5CCOCC5)nc43)C2)n1 [Example 391, {(3S)-3-[4-(2-aminopyrimidin-5-yl)-2-(morpholin-4-yl)-5,6-dihydro-7H-pyrrolo[2,3-d]pyrimidin-7-yl]-3-methylpyrrolidin-1-yl}(1-methyl-1H-pyrazol-3-yl)methanone]	0.022
CNC(=N)N1CC[C@](C)(N2CCc3c(-c4cnc(N)nc4)nc(N4CCOCC4)nc32)C1 [Example 392, (3S)-3-[4-(2-aminopyrimidin-5-yl)-2-(morpholin-4-yl)-5,6-dihydro-7H-pyrrolo[2,3-d]pyrimidin-7-yl]-N,3-dimethylpyrrolidine-1-carboximidamide]	0.101
CCNC(=O)N1CC[C@@](C)(N2CCc3c(-c4cnc(N)nc4)nc(N4CCOCC4)nc32)C1 [Example 393, (3R)-3-[4-(2-aminopyrimidin-5-yl)-2-(morpholin-4-yl)-5,6-dihydro-7H-pyrrolo[2,3-d]pyrimidin-7-yl]-N-ethyl-3-methylpyrrolidine-1-carboxamide]	0.085
CC(C)NC(=O)N1CC[C@@](C)(N2CCc3c(-c4cnc(N)nc4)nc(N4CCOCC4)nc32)C1 [Example 394, (3R)-3-[4-(2-aminopyrimidin-5-yl)-2-(morpholin-4-yl)-5,6-dihydro-7H-pyrrolo[2,3-d]pyrimidin-7-yl]-3-methyl-N-(propan-2-yl)pyrrolidine-1-carboxamide]	0.112
CC(C)NC(=O)N1CC[C@](C)(N2CCc3c(-c4cnc(N)nc4)nc(N4CCOCC4)nc32)C1 [Example 395, (3S)-3-[4-(2-aminopyrimidin-5-yl)-2-(morpholin-4-yl)-5,6-dihydro-7H-pyrrolo[2,3-d]pyrimidin-7-yl]-3-methyl-N-(propan-2-yl)pyrrolidine-1-carboxamide]	0.352
CC(C)(C)NC(=O)N1CC[C@@](C)(N2CCc3c(-c4cnc(N)nc4)nc(N4CCOCC4)nc32)C1 [Example 396, (3R)-3-[4-(2-aminopyrimidin-5-yl)-2-(morpholin-4-yl)-5,6-dihydro-7H-pyrrolo[2,3-d]pyrimidin-7-yl]-N-tert-butyl-3-methylpyrrolidine-1-carboxamide]	0.121
CC(C)(C)NC(=O)N1CC[C@](C)(N2CCc3c(-c4cnc(N)nc4)nc(N4CCOCC4)nc32)C1 [Example 397, (3S)-3-[4-(2-aminopyrimidin-5-yl)-2-(morpholin-4-yl)-5,6-dihydro-7H-pyrrolo[2,3-d]pyrimidin-7-yl]-N-tert-butyl-3-methylpyrrolidine-1-carboxamide]	0.101
C[C@@]1(N2CCc3c(-c4cnc(N)nc4)nc(N4CCOCC4)nc32)CCN(CC(N)=O)C1 [Example 398, 2-{(3R)-3-[4-(2-aminopyrimidin-5-yl)-2-(morpholin-4-yl)-5,6-dihydro-7H-pyrrolo[2,3-d]pyrimidin-7-yl]-3-methylpyrrolidin-1-yl}acetamide]	0.411
C[C@]1(N2CCc3c(-c4cnc(N)nc4)nc(N4CCOCC4)nc32)CCN(CC(N)=O)C1 [Example 399, 2-{(3S)-3-[4-(2-aminopyrimidin-5-yl)-2-(morpholin-4-yl)-5,6-dihydro-7H-pyrrolo[2,3-d]pyrimidin-7-yl]-3-methylpyrrolidin-1-yl}acetamide]	0.074
CNC(=O)CN1CC[C@@](C)(N2CCc3c(-c4cnc(N)nc4)nc(N4CCOCC4)nc32)C1 [Example 400, 2-{(3R)-3-[4-(2-aminopyrimidin-5-yl)-2-(morpholin-4-yl)-5,6-dihydro-7H-pyrrolo[2,3-d]pyrimidin-7-yl]-3-methylpyrrolidin-1-yl}-N-methylacetamide]	0.781
